Measurements reported in paper PMC8145546, “Inhibition of Rice Serotonin N-Acetyltransferases by MG149 Decreased Melatonin Synthesis in Rice Seedlings” (Biomolecules, 2021).

What was measured:
[1] = target: T1, OsSNAT2 (rice recombinant SNAT2) (Oryza sativa, UniProt Q6Z1Y6); assay: HPLC-fluorescence of N-acetylserotonin formed; type: biochemical
T1 construct: N-terminal 34 residues deleted; purified recombinant
T1 sequence (Q6Z1Y6 35-200): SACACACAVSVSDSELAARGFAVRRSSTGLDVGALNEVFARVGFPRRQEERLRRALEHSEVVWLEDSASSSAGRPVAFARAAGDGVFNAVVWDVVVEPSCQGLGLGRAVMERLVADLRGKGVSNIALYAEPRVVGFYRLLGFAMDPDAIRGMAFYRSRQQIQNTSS

[2] = target: T2, OsSNAT1 (rice recombinant SNAT1) (Oryza sativa, UniProt Q5KQI6); assay: HPLC-fluorescence of N-acetylserotonin formed; type: biochemical
T2 construct: N-terminal 83 residues deleted; E. coli, plasmid pET300-Δ83SNAT1; purified recombinant
T2 sequence (Q5KQI6 84-254): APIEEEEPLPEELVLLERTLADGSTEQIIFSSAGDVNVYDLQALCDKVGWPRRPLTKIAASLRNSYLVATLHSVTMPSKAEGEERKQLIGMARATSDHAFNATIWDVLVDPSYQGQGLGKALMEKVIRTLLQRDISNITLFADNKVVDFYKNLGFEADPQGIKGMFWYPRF

**Q.** For `CCCCCCCc1ccc(CCc2cccc(O)c2C(=O)O)cc1` [MG149], which inhibition at 100 µM [1] is on record?
**A.** 28%

**Q.** What about the inhibition at 50 µM [2] of the same compound?
**A.** 80%
